{"source": "patent US8461206B2", "about": "“Use of at least one (dihydro)jasmonic acid derivative for treating dry skin” (L'Oreal, priority 2003, dated 2013)", "format_in_all_cases": "cell-based", "key": {"[1]": {"test_system": "immortalized human sebocytes derived from the SZ95 line", "test": "lipogenesis in immortalized human sebocytes in culture (Nile Red fluorescence)", "conditions": "10^-4 M, 0.1% DMSO, treatment for 48 hours, Nile Red 1 μg/ml, cells at confluence, p<0.001", "procedure": "Methyl dihydrojasmonate (provided by BEDOUKIAN) was tested on a model of immortalized human sebocytes in culture, derived from the SZ95 line described in Zouboulis, C. C., Seltmann, H., Neitzel, H. & Orfanos, C. E., Establishment and Characterization of an Immortalized Human Sebaceous Gland Cell Line, J. Invest. Dermatol., 113, 1011-1020 (1999).\nThe test consisted in measuring the amount of lipids produced by the sebocytes of the line (at confluence), in the presence or absence of active agent diluted in DMSO, such that the final amount of DMSO in the culture medium was 0.1% and the amount of methyl dihydrojasmonate was 10^−4 M. After treatment for 48 hours, the adherent cells were treated with Nile Red (1 μg/ml). The lipid content was then quantified by measuring the fluorescence of the dye (two excitation/emission couples: 485-540 nm for the neutral lipids and 540-620 nm for the normeutral lipids). The results were given for the total lipids (combination of the two measurements).\nThe experiment was carried out in sextuplicate (assayed products and control) in a 96-well plate, and repeated four times."}, "[2]": {"test_system": "immortalized human sebocytes derived from the SZ95 line", "test": "cell proliferation (MUH) assay", "conditions": "in parallel to the lipogenesis test"}, "[3]": {"test_system": "immortalized human sebocytes derived from the SZ95 line", "test": "cell viability (LDH) assay", "conditions": "in parallel to the lipogenesis test"}}}
{"smiles": "CCCCCC1C(=O)CCC1CC(=O)OC", "note": "(stereo not drawn) [methyl dihydrojasmonate]", "values": [{"measurement": "increase in amount of neutral lipids synthesized by the sebocytes compared to the untreated control", "setting": "[1]", "value": 98, "unit": "%"}, {"measurement": "modification of cell proliferation (MUH)", "setting": "[2]", "value": "not related to a modification"}, {"measurement": "modification of cell viability (LDH)", "setting": "[3]", "value": "not related to a modification"}]}
